Reference: patent US5698674A, “Triheterocyclic peptides capable of binding the minor and major grooves of DNA” (The Regents of the University of California, priority 1994, dated 1997)
Several values for one entry are separate records, joined by “and”; a condition that tells them apart may be missing. Identical values can stand only once. Entries after “also recorded” stand apart in the source; their conditions may differ. Like-named read-outs stand apart in the source and are kept apart here.

Assays:
[1] = target: d(GGCGCAAATTTGGCGG)(SEQ ID NO:1)/d(CCGCCAAATTTGCGCC)(SEQ ID NO:2); assay: Hoechst 33258 (Ht) fluorescence competition, equilibrium association constants with hexadecamer duplex; format: binding; conditions: for log KL1: association constant of first ligand, H2O, 10 mM phosphate buffer, pH 7.0, 10 mM NaCl, 35° C, for Ht = log KHt1, Dm, 2, 5a-c recalculated from previously collected data; for log KL1 / log KL2 / log KHtL: mean ± SD; for log KL1 / log KL2: Ht; for log KL2: association constant of second ligand, for Ht = log KHt2, Dm, 2, 5a-c recalculated; for log KHtL: binding of L to DNA:Ht; for log KL1 KL2: complex association constant
Description: Equilibrium constants for the association of 6a and 6b with oligomeric DNA were assessed by the complexing of tren-microgonotropen-a and -b to the hexadecamer d(GGCGCAAATTTGGCGG)(SEQ ID NO:1)/d(CCGCCAAATTTGCGCC)(SEQ ID NO:2) in aqueous solutions at 35° C. (2.8 mL solutions containing 0.01M phosphate buffer, pH 7.0, and 0.01M NaCl).
These reactions were followed by the competition of the dye Hoechst 33258 (Ht) with 6a and 6b for the A3 T3 minor groove binding site (an extension of Ht alone binding to dsDNA). The concentrations of 6a and 6b were confirmed by ^1 H NMR peak integration of resonances with those of an equivalent concentration of mesitoate.
As shown previously (Browne, K. A.; He, G.-X.; Bruice, T. C. J. Am. Chem. Soc. 1993, 115, 7072), monitoring the increase in fluorescence intensity as the association of Ht with the hexadecamer displaces prebound nonfluorescent ligands is an excellent method for determining equilibrium binding constants. FIG. 17 relates the equilibrium constants for the complexing of one and two Ht species to the hexadecamer with one and two L (where L=6a or 6b) binding to the hexadecamer, plus equilibrium constants for the simultaneous binding of one Ht and one L at the same site. [formula]
Eq 1, derived from FIG. 17, relates each of the equilibrium binding constants, the total fluorescence (Σθ), and [L] in terms of fluorescence (F) and [Ht]. The rationale behind FIG. 17 and the subsequent derivation of eq 1 have been described in considerable detail (Browne, et al., 1993, supra). The values of log KHt1 =7.6 and log KHt2 =9.1 used were determined from a reevaluation of data previously collected (Browne, et al., 1993, supra) and are very close to the previously determined values. A concentration independent static quenching term, Q', is included in eq 1 to account for the lessened fluorescent emission of the DNA:Ht:L complex compared to the DNA:Ht and DNA:Ht2 complexes.
The equilibrium association constants calculated as best fits to the experimental data points for 6a and 6b with eq 1 are presented in Table I. Plots of F vs. [Ht] using these constants at 8.0×10^-9, 1.0×10^-8, and 1.2×10^-8 M ligand and 5.0×10^-9 M in hexadecamer duplex are shown in FIGS. 3a and 3b.
Reagents and methods for DNA binding studies were exactly the same as used previously (He, et al., 1993, supra; Browne, et al., 1993, supra) unless stated otherwise. The values for the equilibrium constants for 2, 5a,b,c, Dm, and Ht were recalculated from previously collected data (Browne, et al., 1993, supra) using the curve fitting program SigmaPlot® 4.1.4 (Jandel Scientific, San Rafael, Calif.). The equilibrium constants for 6a and 6b were calculated with SigmaPlot® 4.1.4 using the reevaluated constants for Ht (KHt1 and KHt2).

[2] = test system: calf thymus topoisomerase I; assay: Topoisomerase I inhibition assays (relaxation of supercoiled pBR322); format: biochemical; conditions: for inhibition of topoI relaxation of supercoiled pBR322: agent preincubated with DNA 1 hr before 18 hr topoI reaction, 37° C; for inhibition of topoI after partial relaxation: added after 0.5 hr topoI incubation, then 18 hr
Description: Inhibition of topoI's action on supercoiled pBR322 by 6b was compared to inhibition by Dm and 5b (dien-microgonotropen-b). In the first set of experiments, each agent was allowed to incubate with the DNA for 1 hr prior to the 18 hr topoI reaction period.
In closely related experiments, the mode of inhibition of topoI was examined. This was accomplished by allowing the supercoiled DNA to be partially relaxed for 0.5 hr with topoI before any other DNA ligands were added (FIG. 6).
The buffer for all of the 50 μL reactions was composed of 50 mM Tris-HCl, pH 7.5, 50 mM KCl, 10 mM MgCl2, and 1 mM EDTA that was filtered through a sterile 0.45μ Gelman Sciences Acrodisc. Every reaction mixture contained 1 μg of supercoiled pBR322 plasmid (Pharmacia) and, except for the supercoiled control, every reaction mixture included 10 units of calf thymus topoisomerase I (Bethesda Research Laboratories).
All reactions were extracted twice with water-saturated phenol, extracted once with chloroform, and precipitated with ammonium acetate and ethanol.
The different helical forms of pBR322 created by the relaxation assays were electrophoretically separated through a 4% NuSieve 3:1 (hydroxyethylated) agarose gel (vertical, 0.8 mm) in 40 mM Tris-acetate, pH 8.0 and 1 mM EDTA for 8 hr at 2 V/cm.

[3] = test system: 167 bp EcoRI/RsaI pBR322 restriction fragment; assay: DNase I footprint analysis; format: binding
[4] = test system: .phi.X-174-RF DNA HaeIII restriction digest fragments; assay: Electrophoretic mobility shift assay; format: binding; conditions: for RL vs. agent concentration: 1078 bp fragment; for order of effectiveness in increasing the apparent length of DNA fragments: RL values; for change in electrophoretic behavior: 150 μM
[5] = test system: d(CGCA3 T3 GCG (SEQ ID NO:3))2; assay: Dynamics of ligand exchange in the 1:1 complex (ROESY NMR); format: binding; conditions: 10° C
Description: The data matrix was zero filled to 2K and appodized with a gaussian function to give a line broadening of 1 Hz in both frequency domains. The ROESY experiment was recorded at 10° C. using the Kessler pulse sequence (Kessler, H.; Griesinger, C.; Kerssebaum, R.; Wagner, E.: Ernst, R. J Am. Chem. Soc. 1987, 109, 607) with a mixing time of 50 ms and a locking field strength of 2.5 kHz.
The linearity of the NOE build-up with tm was checked for most of the dsDNA proton interactions between 50 and 180 ms and a 5-20 fold increase was found in the NOE volume integrals from the 50 to 180 ms mixing times. The exchange rate (kex) was calculated from eq 3 as follows:
kex =ln((1+R)/2.tau.m (1-R)), s^-1 eq(3) […]
The free energy of activation, ΔG*, for this exchange process at a certain temperature, T (K), was calculated from eq 4 (Gunther, H. "NMR Spectroscopy: An Introduction", John Wiley, New York, 1980, p. 241).
Exchanges between two equivalent binding sites have been proposed for dsDNA complexes of distamycin (Pelton et al., 1990, supra) and netropsin (Patel et al., 1985, supra). If we consider that the exchange is governed by a "flip-flop" mechanism (Pelton et al., 1990, supra) (FIG. 18), not excluding the possible existence of a fast sliding motion of 6b in the minor groove, the rate of exchange can be calculated (Experimental Section).

[6] = test system: d(GGCGCAAATTTGGCGG)(SEQ ID NO:1)/d(CCGCCAAATTTGCGCC)(SEQ ID NO:2); conditions: hexadecamer; Browne et al., 1993; cited from earlier work
mice = conditions: cited from earlier work
[7] = test system: d(CGCA3 T3 GCG (SEQ ID NO:3))2; conditions: 30° C; Pelton et al., 1990; cited from earlier work
[8] = 25 and 50 μM (0.25 and 0.5 ligand/bp DNA)

Compound | log KL1 [1] | log KL2 ([1]; pH 7.0, 35° C) | log KHtL ([1]; pH 7.0, 35° C) | log KL1 KL2 ([1]; pH 7.0, 35° C) | inhibition of DNase I cleavage at the four A+T-rich binding sites ([3]; 5 μM (0.05 ligand/bp DNA)) | inhibition of DNase I cleavage at the four A+T-rich binding sites [3, 8] | RL vs. agent concentration [4] | order of effectiveness in increasing the apparent length of DNA fragments [4] [a^~ 6b>>distamycin>tren] | change in electrophoretic behavior [4] | other results
CC(=O)Nc1cc(C(=O)Nc2cc(C(=O)Nc3cc(C(=O)NCCCN(C)C)n(C)c3)n(CCCCNCCN(CCN)CCN)c2)n(C)c1 [Compound 6b] | 8.9 ± 0.08 | 9.0 ± 0.2 | 10.3 ± 0.1 | 17.9 | did not produce detectable inhibition of DNase I cleavage | specific inhibition of cleavage was observed at three of the four sites | quite concentration dependent and sigmoidal in response | 6 |  | KL1 (association constant) ([1]; first ligand, hexadecamer A3T3 site, pH 7.0, 35° C): 7.9e+08 M⁻¹ and 8e+08 M⁻¹; complex equilibrium association constants (KL1 KL2) ([1]; hexadecamer, Table I): 8×10^17 M^-2; quenching of Ht fluorescence ([1]; in DNA:Ht:L complex, from Q'): 36%; KL2 ([1]; second ligand, hexadecamer, pH 7.0, 35° C): 1e+09 M⁻¹; inhibition of topoI relaxation of supercoiled pBR322 ([2]; 10 μM): the predominant isomer is the fully supercoiled species; inhibition of topoI after partial relaxation ([2]; 30 μM): inhibited topoI even after pBR322 was considerably unwound; inhibition of topoI relaxation of supercoiled pBR322 ([2]; 30 μM): complete inhibition of topoI; electrophoretic mobility of DNA restriction fragments ([4]; increasing concentration 20, 40, 60, 80 μM): the mobility of DNA restriction fragments decreases; activation energy (ΔG*) of exchange [5]: ~ 17 kcal/mol
Cn1cc(NC(=O)c2cc(NC(=O)c3cc(NC=O)cn3C)cn2C)cc1C(=O)NCCC(=N)N [Dm, Distamycin] | 7.6 ± 0.09 | 8.4 ± 0.08 | 8.8 ± 0.09 | 16.0 | did not produce detectable inhibition of DNase I cleavage | specific inhibition of cleavage was observed at three of the four sites | does not demonstrate very marked changes even at the highest concentrations examined | 6 | smaller changes at 150 μM (0.66 ligand/bp) than 6a or 6b at 40 μM | inhibition of topoI after partial relaxation ([2]; 150 μM): no effect; inhibition of topoI relaxation of supercoiled pBR322 ([2]; 150 μM): only partially inhibited; also recorded: partial inhibition; enhancements in or increased rates of DNase I cleavage at specific sequences ([3]; highest concentrations, 5'- and 3'-labeled fragments): showed enhancements similar to those found previously; equilibrium constant for 1:1 complex formation [6]: 4e+07 M⁻¹; LD50 (mice; i.p.): 500 mg/kg; LD50 (mice; i.v.): 75 mg/kg; rate constant for exchange [7]: 0.2 s⁻¹
CN1CCN(c2ccc3[nH]c(-c4ccc5[nH]c(-c6ccc(O)cc6)nc5c4)nc3c2)CC1 [Ht, Hoechst 33258] | 7.6 and 7.6 ± 0.1 | 9.1 and 9.1 ± 0.2 |  |  |  |  |  |  |  | 
NCCN(CCN)CCN [Tren, tris(2-aminoethyl)amine] |  |  |  |  |  |  |  | 6 | no apparent change in electrophoretic behavior | 
